What was measured:
[1] = system: control sera (pooled serum of ten healthy LUMC hospital workers; commercial negative donor pooled serum from the Dutch bloodbank); assay type: binding, human; parameters: Binding of Control serum LUMC to linear peptides / Binding of Control serum Blood-bank to linear peptides / Binding of Control serum LUMC to looped peptides / Binding of Control Serum Blood-Bank to Looped peptides / Binding of Control serum LUMC to linear peptides of the protein M of SARS-CoV Urbani / Binding of Control serum Blood-bank to linear peptides of the protein M of SARS-CoV Urbani / Binding of Control serum LUMC to looped peptides of the protein M of SARS-CoV Urbani / Binding of Control Serum Blood-Bank to Looped peptides of the protein M of SARS-CoV Urbani: unit not given here
[2] = system: recombinant human anti-SARS-CoV antibody 03-018; assay type: binding; parameters: Binding of antibody 03-018 to linear peptides of the N protein of SARS-CoV Urbani / Binding of antibody 03-018 to looped/cyclic peptides of the N protein of SARS-CoV Urbani: unit not given here
[3] = system: rabbit serum obtained by immunizing a rabbit with the SARS-CoV strain Frankfurt 1; assay type: binding; parameters: Binding of a rabbit serum to linear peptides / Binding of a rabbit serum to looped peptides / Rabbit serum linear peptides / Rabbit serum looped peptides / Binding of a rabbit serum to linear peptides of protein N of SARS-CoV Urbani (Rabbit serum linear peptides) / Binding of a rabbit serum to looped/cyclic peptides of protein N of SARS-CoV Urbani (Rabbit serum looped peptides): unit not given here
[4] = system: antibodies in sera from SARS patients (sera 1a, 1b, 2, 6, 37, 62, London, SARS-yellow, SARS-green); assay type: binding, human; parameters: Binding of serum 6 to linear peptides of protein X1 of SARS-CoV Urbani / Binding of serum 37 to linear peptides of protein X1 of SARS-CoV Urbani / Binding of serum 6 to looped/cyclic peptide (PEPSCAN-ELISA) / Binding of serum 37 to looped/cyclic peptide (PEPSCAN-ELISA) / Binding of serum 37 to looped/cyclic peptides of protein X1 of SARS-CoV Urbani / Binding of serum 6 to linear peptides of protein X2 / Binding of serum 37 to linear peptides of protein X2 / Binding of serum 37 to looped/cyclic peptides of protein X2 of SARS-CoV Urbani / Binding of serum 6 to linear peptides of protein M of SARS-CoV Urbani / Binding of serum 37 to linear peptides of protein M of SARS-CoV Urbani / Binding of serum 6 to looped/cyclic peptides of protein M of SARS-CoV Urbani / Binding of serum 37 to looped/cyclic peptides of protein M of SARS-CoV Urbani / Binding of serum 6 to linear peptides of protein X3 of SARS-CoV Urbani / Binding of serum 37 to linear peptides of protein X3 of SARS-CoV Urbani / Binding of serum 37 to looped/cyclic peptides of protein X3 of SARS-CoV Urbani / Binding of serum 6 to linear peptides of protein X4 of SARS-CoV Urbani / Binding of serum 37 to linear peptides of protein X4 of SARS-CoV Urbani / Binding of serum 37 to looped/cyclic peptides of protein X4 of SARS-CoV Urbani / Binding of serum 6 to linear peptides of protein X5 of SARS-CoV Urbani / Binding of serum 37 to linear peptides of protein X5 of SARS-CoV Urbani / Binding of serum 37 to looped/cyclic peptides of protein X5 of SARS-CoV Urbani / Binding of serum 6 to linear peptides of protein N of SARS-CoV Urbani / Binding of serum 37 to linear peptides of protein N of SARS-CoV Urbani / Binding of serum 6 to linear peptide (PEPSCAN-ELISA) / Binding of serum 1a to looped/cyclic peptides of protein N of SARS-CoV Urbani / Binding of serum 1b to looped/cyclic peptides of protein N of SARS-CoV Urbani / Binding of serum 2 to looped/cyclic peptides of protein N of SARS-CoV Urbani / Binding of serum 6 to looped/cyclic peptides of protein N of SARS-CoV Urbani / Binding of serum 37 to looped/cyclic peptides of protein N of SARS-CoV Urbani / Binding of serum 62 to looped/cyclic peptides of protein N of SARS-CoV Urbani / Binding of serum London to looped/cyclic peptides of protein N of SARS-CoV Urbani / Binding of serum SARS-green to looped/cyclic peptides of protein N of SARS-CoV Urbani: unit not given here

Sequence | Binding of antibody 03-018 to linear peptides of the N protein of SARS-CoV Urbani [2] | Binding of antibody 03-018 to looped/cyclic peptides of the N protein of SARS-CoV Urbani [2] | Binding of a rabbit serum to linear peptides of protein N of SARS-CoV Urbani (Rabbit serum linear peptides) [3] | Binding of a rabbit serum to looped/cyclic peptides of protein N of SARS-CoV Urbani (Rabbit serum looped peptides) [3] | Binding of serum 1a to linear peptides of protein N of SARS-CoV Urbani [4] | Binding of serum 1a to looped/cyclic peptides of protein N of SARS-CoV Urbani [4] | Binding of serum 1b to linear peptides of protein N of SARS-CoV Urbani [4] | Binding of serum 1b to looped/cyclic peptides of protein N of SARS-CoV Urbani [4] | Binding of serum 2 to linear peptides of protein N of SARS-CoV Urbani [4] | Binding of serum 2 to looped/cyclic peptides of protein N of SARS-CoV Urbani [4] | Binding of serum 6 to linear peptides of protein N of SARS-CoV Urbani [4] | Binding of serum 6 to looped/cyclic peptides of protein N of SARS-CoV Urbani [4] | Binding of serum 37 to linear peptides of protein N of SARS-CoV Urbani [4] | Binding of serum 37 to looped/cyclic peptides of protein N of SARS-CoV Urbani [4] | Binding of serum 62 to linear peptides of protein N of SARS-CoV Urbani [4] | Binding of serum 62 to looped/cyclic peptides of protein N of SARS-CoV Urbani [4] | Binding of serum London to linear peptides of protein N of SARS-CoV Urbani [4] | Binding of serum London to looped/cyclic peptides of protein N of SARS-CoV Urbani [4] | Binding of serum SARS-green to looped/cyclic peptides of protein N of SARS-CoV Urbani [4] | Binding of serum SARS-yellow to looped/cyclic peptides of protein N of SARS-CoV Urbani [4] | also measured
SGTWLTYHGAIKLDD | 0.1 | 0.2 | 0.1 | 0.5 | 0.2 | 0.8 | 0.1 | 0.5 | 0.1 | 0.7 | 0.1 | 0.4 | 0.7 | 1.0 | 0.5 | 1.2 | 0.6 | 0.8 | 1.8 | 1.6 | Control Serum Blood-Bank Looped peptides [1]: 1.0; Control serum Blood-bank linear peptides [1]: 0.5; Control serum LUMC linear peptides [1]: 0.5; Control serum LUMC looped peptides [1]: 0.8; Binding of serum SARS-green to linear peptides of protein N of SARS-CoV Urbani [4]: 0.5; Binding of serum SARS-yellow to linear peptides of protein N of SARS-CoV Urbani [4]: 0.6
NFGDQDLIRQGTDYK | 0.1 | 0.2 | 0.1 | 0.1 |  | 0.2 |  | 0.1 |  | 0.2 |  | 0.1 |  | 0.4 |  | 0.3 |  | 0.3 | 0.2 | 0.1 | Binding of Control Serum Blood-Bank to Looped peptides [1]: 0.5; Binding of Control serum Blood-bank to linear peptides [1]: 0.8; Binding of Control serum LUMC to linear peptides [1]: 0.7; Binding of Control serum LUMC to looped peptides [1]: 0.4; Binding of serum 1a to linear peptide (PEPSCAN-ELISA) [4]: 0.3; Binding of serum 1b to linear peptide (PEPSCAN-ELISA) [4]: 0.2; Binding of serum 2 to linear peptide (PEPSCAN-ELISA) [4]: 0.2; Binding of serum 6 to linear peptide (PEPSCAN-ELISA) [4]: 0.2; Binding of serum 37 to linear peptide (PEPSCAN-ELISA) [4]: 0.7; Binding of serum 62 to linear peptide (PEPSCAN-ELISA) [4]: 0.7; Binding of serum London to linear peptide (PEPSCAN-ELISA) [4]: 0.6; Binding of serum SARS-green to linear peptide (PEPSCAN-ELISA) [4]: 0.8; Binding of serum SARS-yellow to linear peptide (PEPSCAN-ELISA) [4]: 0.6
VPINTNSGPDDQIGY | 0.1 | 0.2 | 0.1 | 0.3 | 0.3 | 0.5 | 0.2 | 0.4 | 0.2 | 0.4 | 0.2 | 0.2 | 0.8 | 0.9 | 0.7 | 0.7 | 0.4 | 0.5 | 1.1 | 0.7 | Binding of Control Serum Blood-Bank to Looped peptides [1]: 0.8; Binding of Control serum Blood-bank to linear peptides [1]: 0.7; Binding of Control serum LUMC to linear peptides [1]: 0.8; Binding of Control serum LUMC to looped peptides [1]: 0.7; Binding of serum SARS-green to linear peptides of protein N of SARS-CoV Urbani [4]: 0.4; Binding of serum SARS-yellow to linear peptides of protein N of SARS-CoV Urbani [4]: 0.5
IRQGTDYKHWPQIAQ | 0.1 | 0.2 | 0.1 | 0.3 | 0.2 | 0.4 | 0.1 | 0.2 | 0.2 | 0.4 | 0.2 | 0.2 | 0.7 | 0.6 | 0.6 | 0.6 | 0.9 | 0.4 | 0.3 | 0.4 | Binding of Control Serum Blood-Bank to Looped peptides [1]: 0.5; Binding of Control serum Blood-bank to linear peptides [1]: 0.7; Binding of Control serum LUMC to linear peptides [1]: 0.7; Binding of Control serum LUMC to looped peptides [1]: 0.6; Binding of serum SARS-green to linear peptides of protein N of SARS-CoV Urbani [4]: 0.3; Binding of serum SARS-yellow to linear peptides of protein N of SARS-CoV Urbani [4]: 0.6
